From US6265423A, “Aromatic polycyclic retinoid-type derivatives, method for preparing same, and use thereof for making pharmaceutical and cosmetic compositions” (priority 1996, dated 2001)
Read-outs that look alike come from different tables or passages of the source.

What was measured:
[1] = system: response element RARE of RARβ gene, endogenic retinoic receptors, HRLN lineage; experiment: HRLN transactivation (RARE-luciferase, stably transfected HeLa); type: cell-based; settings: for Emax: Homo sapiens, HeLa, read-out: HRLN transactivation, E max
How it was run: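 HeLa cells stably carrying a RARE3-tk-Luc reporter (natural RARβ RARE, GGTTCAnnnnnAGTTCA) report activation by endogenous RARs/RXRs. Assays run in duplicate in phenol red-free DMEM with 3% dextran-charcoal-treated FCS, protected from light; luciferase read-out.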

[2] = system: A-427 human pulmonary cancer cells; experiment: MTT test, proliferation of A-427; settings: Homo sapiens, A-427, 72 h, read-out: level of proliferation
RARα-ERcassette = experiment: Transactivation, chimerical receptor RARα-ERcassette (HeLa); type: cell-based; settings: TTNPB 10^-8 M = 100
How it was run: (§1)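 Read-out: ERE-driven luciferase in HeLa cells, normalised to a co-transfected CMV-β-galactosidase control. Receptor is RAR with its C domain swapped for the oestrogen receptor DNA-binding domain, keeping AF-1/AF-2 cooperation. Effector exposure 16 h, beginning 24 h post-transfection.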

[3] = system: T-47D human mammary cancer cells; experiment: MTT test, proliferation of T-47D; type: cell-based; settings: for activity at 100 µM / activity at 1 µM / activity at 0.01 µM: Homo sapiens, T47D, T-47D, 72 h, control = 100%, read-out: level of proliferation; for activity at 100 µM: 10^-4 M; for activity at 1 µM: 10^-6 M; for activity at 0.01 µM: 10^-8 M
How it was run: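 After 24 h seeding, cells in MEM with 5% decomplemented FCS at 37° C were exposed to compound at 10^-8 M, 10^-6 M and 10^-4 M. Viability was assessed by MTT reduction to formazan, dissolved in DMSO. Mean optical density is expressed as % of untreated control (100%), in 6 duplicates.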

RARγ-ERcassette = experiment: Transactivation, chimerical receptor RARγ-ERcassette (HeLa); type: cell-based; settings: TTNPB 10^-8 M = 100
How it was run: as §1

Gal4-RARα = experiment: Transactivation, chimerical receptor Gal4-RARα (transitory transfection of HeLa); type: cell-based; settings: 100% = TTNPB 10^-8 M
[4] = system: A549 human pulmonary cancer cells; experiment: MTT test, proliferation of A549; type: cell-based; settings: for activity at 0.01 µM / activity at 1 µM / activity at 100 µM: Homo sapiens, read-out: level of proliferation
[5] = system: Gal4-RAR (RARα, RARβ, RARγ); experiment: Chimerical receptors Gal4-RAR, overall profile; type: cell-based
Gal4-RARβ = experiment: Transactivation, chimerical receptor Gal4-RARβ (transitory transfection of HeLa); type: cell-based; settings: 100% = TTNPB 10^-8 M
[6] = A549, 10^-4 M, 72 h, control = 100%
[7] = A549, 10^-6 M, 72 h, control = 100%
[8] = A549, 10^-8 M, 72 h, control = 100%

Structure (SMILES)	HRLN transactivation (in words) [1]	activity at 1 µM [2] [%]	activity at 100 µM [2] [%]	RAR-ERcassette RARα transactivation (RARα-ERcassette; 10^-6 M) [%]	RAR-ERcassette RARα transactivation (RARα-ERcassette; 10^-7 M) [%]	RAR-ERcassette RARα transactivation (RARα-ERcassette; 10^-8 M) [%]	activity at 100 µM [3] [%]	activity at 1 µM [3] [%]	activity at 0.01 µM [3] [%]	RAR-ERcassette RARγ transactivation (RARγ-ERcassette; 10^-6 M) [%]	RAR-ERcassette RARγ transactivation (RARγ-ERcassette; 10^-7 M) [%]	RAR-ERcassette RARγ transactivation (RARγ-ERcassette; 10^-8 M) [%]	GAL4-RAR RARα transactivation (Gal4-RARα; 10^-6 M) [%]	GAL4-RAR RARα transactivation (Gal4-RARα; 10^-7 M) [%]	Gal-RAR agonist profile (in words) [5]	GAL4-RAR RARβ transactivation (Gal4-RARβ; 10^-6 M) [%]	GAL4-RAR RARβ transactivation (Gal4-RARβ; 10^-7 M) [%]	Emax [1] [%]	activity at 0.01 µM [2] [%]	activity at 100 µM [4, 6] [%]	other results
CC1=C(/C=C/C(C)=C/C=C/C(C)=C/C(=O)O)C(C)(C)CCC1 [CB16178, all-trans retinoic acid, reference compound]	induce a dose-dependent activation	68.2	1.5	443	249	127	1.8	52.6	77.2	189	122	114	108	102	good RAR agonists	92	93				RAR-ERcassette RARα transactivation (RARα-ERcassette; 10^-9 M): 65%; effect on cellular increase, T-47D (in words) ([3]; MTT test): inhibit the cellular increase of the two mammary lineages at the concentrations tested; RAR-ERcassette RARγ transactivation (RARγ-ERcassette; 10^-9 M): 86%; GAL4-RAR RARα transactivation (Gal4-RARα; 10^-8 M): 82%; activity at 0.01 µM ([4]; A549, 72 h): 78.8%; activity at 1 µM ([4]; A549, 72 h): 89.2%; activity at 100 µM ([4]; A549, 72 h): 22.3%; effect on cellular increase, A549 (in words) ([4]; MTT test): inhibit the proliferation of the A549 lineage at 10^-6 M and 10^-8 M; GAL4-RAR RARβ transactivation (Gal4-RARβ; 10^-8 M): 104%
C/C(=C/c1ccc2c(c1)C(C)(C)CCC2(C)C)c1ccc(C(=O)O)cc1 [CB28628, reference compound]		86.8	2.5	179	95	35	4	59.3	93.2	92	87	55		103	completely agonistic for the three types of RAR receptors		102	98	86.7	12.4	activity at 1 µM [4, 7]: 93.4%; activity at 0.01 µM [4, 8]: 109%
CC1(C)CCC(C)(C)c2cc(/C=C(\c3ccc(C(=O)O)cc3)C(F)(F)F)ccc21 [CB36493, (E) 4-[1-trifluoromethyl-2-(5,6,7,8-tetrahydro-5,5,8,8-tetramethyl-2-naphthalenyl)-1-ethenyl]benzoic acid]	induce a transactivation close to that of TTNPB	87.2	1.6	91	15	1	21.4	116	134	26	5	0	38		partial agonists at 1 μM for the three RAR receptors	44		97	89.9	10.4	activity at 1 µM [4, 7]: 93.7%; activity at 0.01 µM [4, 8]: 98.5%
